Results on eleven compounds are retold here after PubChem BioAssay (NCI).

Among the test systems are DLD-1 colon; K-562 leukemia; SF-268 CNS; CAKI-1 renal; TK-10 renal; DMS 273 small cell lung; SNB-75 CNS; SF-295 CNS; SNB-19 CNS; NCI-H226 lung.
Common to all, as to assay: DTP human tumour cell line panel, 48 h

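Values below derive from 48-hour exposures of cells grown in 96-well plates, with endpoints linearly interpolated between the two concentrations bracketing the appropriate inhibition level. GI50 is the concentration that inhibits growth by half. TGI is the concentration that stops growth completely.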 Some results are limits rather than exact numbers.

One may read the GI50 as the concentration that inhibits growth by half. For orientation: TGI means the concentration giving total growth inhibition. For `N.N.N.N.N.N#Cc1nn[n-]n1.[Cl-].[Co+3]`, the GI50 in the test on DLD-1 colon, with K-562 leukemia, in the test with SF-268 CNS, in the test with CAKI-1 renal, in the test on TK-10 renal and in the test on DMS 273 small cell lung was over 100 µM each time. The GI50 with SNB-75 CNS, with SF-295 CNS and with SNB-19 CNS was over 100 µM each time. Also, the concentration for total growth inhibition (TGI) in the test on DLD-1 colon, with K-562 leukemia, in the test on SF-268 CNS, in the test with CAKI-1 renal, with TK-10 renal and in the test with DMS 273 small cell lung was over 100 µM each time. The TGI in the test with SNB-75 CNS, in the test on SF-295 CNS and in the test with SNB-19 CNS was over 100 µM each time.

For the compound `CC[O-].CC[O-].COc1ccc(C(=O)[CH-]C(C)=O)cc1OC.COc1ccc(C(=O)[CH-]C(C)=O)cc1OC.[Ti+4]`, the GI50 was 77.5 µM in the test on DLD-1 colon; over 100 µM in the test on K-562 leukemia; over 100 µM with SF-268 CNS; over 100 µM in the test on NCI-H226 lung; 33 µM with CAKI-1 renal; 44.4 µM in the test on DMS 273 small cell lung. The GI50 is 26.9 µM in the test with SNB-75 CNS, 33.9 µM in the test on SF-295 CNS and 73 µM with SNB-19 CNS. Besides, the concentration for total growth inhibition (TGI) in the test with DLD-1 colon was over 100 µM; in the test on K-562 leukemia it was over 100 µM; in the test with SF-268 CNS, over 100 µM; in the test with NCI-H226 lung, over 100 µM; in the test with CAKI-1 renal, 96.1 µM; in the test with DMS 273 small cell lung, over 100 µM. The TGI with SNB-75 CNS, in the test on SF-295 CNS and in the test on SNB-19 CNS was over 100 µM throughout.

As for `O=C(O)c1ccc(NCc2nc3ccccc3[nH]2)cc1`, the GI50 in the test with K-562 leukemia, with SF-268 CNS, in the test on NCI-H226 lung, with CAKI-1 renal, in the test on TK-10 renal and with SNB-75 CNS was over 100 µM in each case. The GI50 in the test on SF-295 CNS and with SNB-19 CNS was over 100 µM each time. Also, the TGI with K-562 leukemia, with SF-268 CNS, with NCI-H226 lung, in the test on CAKI-1 renal, with TK-10 renal and with SNB-75 CNS was over 100 µM each time. Also, the TGI with SF-295 CNS and in the test with SNB-19 CNS was over 100 µM throughout.

Turning to `O=CC1CCC=CC1NC(=O)OCc1ccccc1` (stereo not drawn), the concentration for total growth inhibition (TGI) in the test on DLD-1 colon, with K-562 leukemia, in the test on SF-268 CNS, in the test with NCI-H226 lung, in the test with CAKI-1 renal and with TK-10 renal was over 100 µM in each case. The concentration for total growth inhibition (TGI) in the test with DMS 273 small cell lung was over 100 µM; with SNB-75 CNS, 94.3 µM; in the test on SF-295 CNS, over 100 µM.

For the compound `O=C(/C=C/c1ccco1)Nc1ncc(Cc2cccc(C(F)(F)F)c2)s1`, the GI50 is 0.0361 µM in the test with K-562 leukemia; 0.167 µM with SF-268 CNS; 0.336 µM in the test with NCI-H226 lung; 0.0464 µM in the test with CAKI-1 renal; 0.779 µM in the test on TK-10 renal; 0.0301 µM in the test on SNB-75 CNS. Also, the GI50 is 0.0678 µM in the test on SF-295 CNS and 0.1 µM with SNB-19 CNS. The concentration for total growth inhibition (TGI) is over 33.8 µM in the test on K-562 leukemia; over 44.2 µM in the test on SF-268 CNS; 7.93 µM in the test with CAKI-1 renal; 13.8 µM in the test on TK-10 renal; 1.65 µM in the test on SNB-75 CNS; 1.42 µM with SF-295 CNS. Besides, in the test with SNB-19 CNS, the TGI is over 44.5 µM.

Take `O=C(NCCCl)NCCN1c2nc3ccccc3cc2Sc2cc3ccccc3nc21`: the GI50 in the test on K-562 leukemia is 2.14 µM; in the test with SF-268 CNS, 3.63 µM; with NCI-H226 lung it was 1.82 µM; with CAKI-1 renal, 14.7 µM; in the test with TK-10 renal it was 7.12 µM; in the test on SNB-75 CNS it was 0.558 µM. In addition, the GI50 was 0.569 µM in the test on SF-295 CNS and 5.58 µM in the test on SNB-19 CNS. Moreover, the TGI is over 25 µM in the test on K-562 leukemia; over 41 µM in the test on SF-268 CNS; 19 µM in the test with NCI-H226 lung; over 55.3 µM in the test on CAKI-1 renal; 28.1 µM in the test with TK-10 renal; 5.47 µM in the test with SNB-75 CNS. Besides, the results for the total growth inhibition concentration (TGI) with SF-295 CNS and in the test with SNB-19 CNS were 3.75 µM and over 46.8 µM, respectively.

Regarding `NC(CP(=O)(O)O)C(=O)O` (stereo not drawn), the TGI in the test on K-562 leukemia, in the test on SF-268 CNS, in the test with NCI-H226 lung, with CAKI-1 renal, in the test with TK-10 renal and in the test on SNB-75 CNS was over 100 µM in each case. Also, the TGI in the test on SF-295 CNS and in the test on SNB-19 CNS was over 100 µM each time.

For `Cc1ccc2nc(Sc3c([N+](=O)[O-])ncn3C)[nH]c2c1`, the TGI with DLD-1 colon was 49.8 µM; in the test on SF-268 CNS it was 83.9 µM; in the test with NCI-H226 lung it was 45 µM; in the test on CAKI-1 renal, 27.5 µM; with TK-10 renal, over 100 µM; with DMS 273 small cell lung it was 40.1 µM. Also, the figures for the TGI in the test with SNB-75 CNS, in the test with SF-295 CNS and in the test with SNB-19 CNS were 89.3 µM, over 100 µM and over 100 µM, respectively.

Consider `CC(=O)OC1CC2C(C)(C)CCC[C@]2(C)C2=C1C(O)=C(C(C)C)C(=O)C2=O` (stereo partly drawn), for which the GI50 in the test on K-562 leukemia was 0.919 µM; in the test with SF-268 CNS it was 0.902 µM; in the test with NCI-H226 lung, 0.589 µM; in the test with CAKI-1 renal, 0.567 µM; in the test with TK-10 renal it was 1.43 µM; with SNB-75 CNS it was 1.2 µM. Besides, the figures for the GI50 with SF-295 CNS and with SNB-19 CNS were 0.644 µM and 0.646 µM, respectively. Also, the TGI is over 100 µM in the test with K-562 leukemia; 10.1 µM with SF-268 CNS; 2.12 µM in the test with NCI-H226 lung; 2.9 µM in the test with CAKI-1 renal; 12.8 µM with TK-10 renal; 3.03 µM in the test on SNB-75 CNS. The concentration for total growth inhibition (TGI) in the test on SF-295 CNS was 2.57 µM; with SNB-19 CNS, over 46 µM.

For the compound `N#CC(C#N)=Cc1ccc(C(O)P(=O)(O)O)cc1` (stereo not drawn), the concentration for total growth inhibition (TGI) in the test with DLD-1 colon, with K-562 leukemia, with SF-268 CNS, in the test with NCI-H226 lung, in the test with CAKI-1 renal and in the test on TK-10 renal was over 100 µM throughout. Besides, the TGI with DMS 273 small cell lung, with SF-295 CNS and in the test on SNB-19 CNS was over 100 µM in each case.

Regarding `O=C1c2cccc([N+](=O)[O-])c2C(=O)c2nccnc21`, the TGI was 11.4 µM in the test on DLD-1 colon; 4.17 µM in the test with K-562 leukemia; 4.06 µM in the test with NCI-H226 lung; 16.4 µM in the test on CAKI-1 renal; 3.85 µM in the test with TK-10 renal; 12.3 µM in the test with DMS 273 small cell lung. For the same compound, the TGI in the test with SNB-75 CNS worked out at 2.35 µM; in the test on SF-295 CNS, 3.5 µM; in the test with SNB-19 CNS it was 4.04 µM.
